Reference: article PMC9000482, “Inhibition of Aldose Reductase by Ginsenoside Derivatives via a Specific Structure Activity Relationship with Kinetics Mechanism and Molecular Docking Study” (Molecules, 2022)
Like-named read-outs stand apart in the source and are kept apart here. Marks after values point to notes of the source that are not given here.

Assays:
[1] = biological target: T1, rat lens aldose reductase (RLAR) (Rattus norvegicus, UniProt P07943); experiment: Enzyme kinetics of RLAR inhibition (Lineweaver-Burk and Dixon plots); type: biochemical; details: for RLAR Mode of Inhibition: Lineweaver-Burk plot
T1 construct: from tissue; host or cells: lens of Sprague-Dawley rats (supernatant of homogenate)
Experimental: (§1) Enzyme inhibition with different concentrations ([…]) was assessed by monitoring the effects of different concentrations of the substrate. The following concentrations of test ginsenosides were used in the RLAR kinetics analysis: 0, 2, 10, and 50 µM for protopanaxadiol; 0, 0.5, 2.5, and 10 µM for (20S) ginsenoside Rg3; 0, 0.5, 2.5, and 10 µM for (20R) ginsenoside Rg3; 0, 0.1, 0.5, and 2.5 µM for ginsenoside Rh2; 0, 2, 10, and 50 µM for protopanaxatriol; 0, 0.8, 4, and 20 µM for ginsenoside Rf; 0, 0.8, 4, and 20 µM for (20S) ginsenoside Rg2, and 0, 0.5, 2.5, and 10 µM for ginsenoside Rh1. Using Lineweaver-Burk double reciprocal plots, the inhibition type was determined using various concentrations of DL-glyceraldehyde (5, 10, and 20 mM) for HRAR as a substrate in the presence of different concentrations of the active test ginsenosides. The concentrations of test ginsenosides in the HRAR kinetics analysis were as follows: 0, 0.1, 0.5, and 2.5 µM for protopanaxadiol; 0, 0.5, 2, and 10 µM for (20S) ginsenoside Rg3; 0, 1, 5, and 20 µM for (20R) ginsenoside Rg3; 0, 0.5, 2.5, and 10 µM for ginsenoside Rh2; 0, 0.1, 0.5, and 2.5 µM for compound K; 0, 1, 5, and 10 µM for protopanaxatriol; 0, 0.5, 4, and 20 µM for (20R) ginsenoside Rg2, and 0, 0.2, 2, and 5 µM for ginsenoside Rh1. The Dixon plot is a graphical method [1/enzyme velocity (1/V)] against inhibitor concentration [I] used to determine the type of enzyme inhibition; it was used to identify the dissociation or inhibition constant (Ki) for the enzyme-inhibitor complex. Dixon plots (single reciprocal plots) for RLAR and HRAR inhibition were obtained in the presence of 100, 50, and 10 mM RLAR, and 20, 10, and 5 mM HRAR DL-glyceraldehyde substrate. Thus, the type of enzyme inhibition was determined by interpreting the Lineweaver-Burk plots, and the inhibition constants (Ki) were determined by interpreting the Dixon plots.

[2] = biological target: T1, rat lens aldose reductase (RLAR); experiment: RLAR inhibitory activity assay (rat lens homogenate, DL-glyceraldehyde substrate); type: biochemical
Experimental: A rat lens homogenate was prepared with minor modifications according to the method reported by Hayman et al.. Briefly, the lenses were removed from the eyes of Sprague-Dawley rats weighing 250–280 g. They were homogenized in sodium phosphate buffer (pH 6.2) that was prepared with dibasic sodium phosphate (Na2HPO4∙H2O, 0.66 g) and monobasic sodium phosphate (NaH2PO4∙H2O, 1.27 g) in 100 mL of double-distilled H2O. The homogenate was clarified by centrifugation at 10,000 rpm at 4 °C for 20 min and the resultant supernatant was frozen until use. A crude AR homogenate with a specific activity of 6.5 U/mg was used in all enzyme inhibition evaluations. The reaction solution consisted of 620 µL of 100 mM sodium phosphate buffer (pH 6.2), 90 µL of AR homogenate, 90 µL of 1.6 mM NADPH, and 9 µL of sample, while the substrate included 90 µL of 50 mM DL-glyceraldehyde. […] AR activity was determined by measuring the decrease in NADPH absorption at 340 nm over a 4 min period on an Ultrospec®2100pro UV/Visible spectrophotometer. SWIFT II Applications software (Amersham Biosciences, NJ, USA) was used for all data analyses. The inhibition percentage (%) was calculated as follows in Equation (1):[1 − (∆Asample/min − ∆Ablank/min)/(∆Acontrol/min − ∆Ablank/min)] × 100(1) in which ∆Asample/min represents the test sample and substrate’s reduction in absorbance over 4 min, and ∆A control/min represents the same reduction in absorbance, but with 100% DMSO (dimethyl sulfoxide) rather than the test sample.

[3] = test system: sorbitol accumulation in rat lens; experiment: Lens culture and intracellular sorbitol measurement (ex vivo); type: cell-based, Sprague-Dawley rats; details: 25 mM glucose, 6 days, sample 5 μg/mL, mean ± SD (n = 3); for inhibition at 5 µg/mL: 144 h
[4] = biological target: T2, human recombinant aldose reductase (HRAR) (Homo sapiens, UniProt P15121); experiment: HRAR inhibition assay (DL-glyceraldehyde substrate); type: biochemical
T2 construct: purchased Wako Chemicals (Osaka, Japan)
Experimental: HRAR inhibition was studied according to Nishimura et al.. AR action was studied by measuring the reduction in NADPH absorption at 340 nm over a period of 1 min on a UV/visible spectrophotometer (Ultrospec®2100pro, Biochrom, Holliston, MA, USA). For HRAR inhibition, the HRAR enzyme (0.4 units), was used in all enzyme inhibition evaluations. […] The inhibition percentage (%) was measured as designated in the RLAR assay. The DA sample/min value characterizes the decrease in absorbance for 1 min with the test samples and substrate. The ability of each sample to inhibit HRAR was observed as an IC50 value (µM) and measured from the log-dose inhibition curve.

[5] = biological target: T2, human recombinant aldose reductase (HRAR); experiment: Enzyme kinetics of HRAR inhibition (Lineweaver-Burk and Dixon plots); type: biochemical; details: for HRAR Mode of Inhibition: Lineweaver-Burk plot
Experimental: as §1

[6] = rat lens homogenate, substrate DL-glyceraldehyde, mean ± S.E.M. of triplicate experiments, read-out: RLAR IC50
[7] = substrate DL-glyceraldehyde, mean ± S.E.M. of triplicate experiments, read-out: HRAR IC50
[8] = Dixon plots, single inhibition constant, read-out: HRAR Ki
[9] = Dixon plots, read-out: RLAR Kic (binding constant of inhibitor with free enzyme)

SMILES | Ki [1] [µM] | RLAR Mode of Inhibition [1] | IC50 [2] [µM] | Sorbitol Content (mg)/Lens Wet Weight (g) [3] | IC50 [4] [µM] | Ki [5] [µM] | HRAR Kiu (binding constant of inhibitor with enzyme-substrate complex) ([5]; Dixon plots) [µM] | HRAR Mode of Inhibition [5] | inhibition at 5 µg/mL ([3]; Rattus norvegicus) [%] | IC50 [2, 6] [µM] | IC50 [4, 7] [µM] | Ki [5, 8] [µM] | other results
CC(C)=CCC[C@](C)(O)[C@H]1CC[C@]2(C)[C@@H]1[C@H](O)C[C@@H]1[C@@]3(C)CC[C@H](O[C@@H]4O[C@H](CO)[C@@H](O)[C@H](O)[C@H]4O)C(C)(C)[C@@H]3CC[C@]12C [Ginsenoside Rh2] | 0.43 | Competitive type | 0.67 ± 0.01 | 0.05 ± 0.01 ^a mg/g | 7.44 ± 0.55 | 3.63 | 9.22 | Mixed type | – | – | – | – | RLAR Mode of Inhibition ([1]; listed as Rh2): competitive; inhibition at 5 µg/mL [3]: 97.1 ± 5.41%
CC(C)=CCC[C@](C)(O)[C@H]1CC[C@]2(C)[C@@H]1[C@H](O)C[C@@H]1[C@@]3(C)CC[C@H](O)C(C)(C)[C@@H]3[C@@H](O[C@@H]3O[C@H](CO)[C@@H](O)[C@H](O)[C@H]3O)C[C@]12C [Ginsenoside Rh1] | 5.39 | Competitive type | 7.28 ± 0.27 | 0.10 ± 0.01 ^a mg/g | 4.66 ± 0.34 | 3.4 | 8.31 | Mixed type | – | – | – | – | RLAR Mode of Inhibition ([1]; listed as Rh1): competitive; inhibition at 5 µg/mL [3]: 94.2 ± 4.71%
CC(C)=CCCC(C)(O)C1CCC2(C)C1C(O)CC1C3(C)CCC(OC4OC(CO)C(O)C(O)C4OC4OC(CO)C(O)C(O)C4O)C(C)(C)C3CCC12C [(20R) ginsenoside Rg3] | – | Competitive type | – | 0.89 ± 0.01 ^c mg/g | – | – | 17.99 | Mixed type | 48.2 ± 3.99 | – | – | – | RLAR Mode of Inhibition ([1]; listed as (20R) Rg3): competitive; Ki ([1]; read-out: RLAR Ki, Dixon plots, single inhibition constant): 3.69 µM; IC50 ([2]; read-out: RLAR IC50, rat lens homogenate, substrate DL-glyceraldehyde, mean ± S.E.M. of triplicate experiments): 4.28 ± 0.31 µM; IC50 ([4]; read-out: HRAR IC50, substrate DL-glyceraldehyde, mean ± S.E.M. of triplicate experiments): 8.67 ± 0.87 µM; Ki ([5]; read-out: HRAR Kic (binding constant of inhibitor with free enzyme), Dixon plots): 11.1 µM
CC(C)=CCC[C@](C)(O[C@@H]1O[C@H](CO)[C@@H](O)[C@H](O)[C@H]1O)C1CC[C@]2(C)[C@@H]1[C@H](O)CC1[C@@]3(C)CC[C@H](O)C(C)(C)C3CC[C@]12C (stereo partly shown) [Compound K] | – | – | – | 0.46 ± 0.01 ^b mg/g | – | – | – | Competitive type | 73.2 ± 8.11 | 41.5 ± 3.99 | 2.23 ± 0.54 | 1.59 | HRAR Mode of Inhibition ([5]; listed as compound K): competitive
CC(C)=CCCC(C)(O)C1CCC2(C)C1C(O)CC1C3(C)CCC(O)C(C)(C)C3C(OC3OC(CO)C(O)C(O)C3OC3OC(C)C(O)C(O)C3O)CC12C [(20R) ginsenoside Rg2] | – | – | – | 0.83 ± 0.01 ^c mg/g | – | – | – | Non-competitive | – | 29.4 ± 2.33 | 13.7 ± 0.99 | 11.7 | Inhibition (%) of sorbitol accumulation in rat lens [3]: 51.74 ± 2.99 ^c %
CC(C)=CCC[C@](C)(O)[C@H]1CC[C@]2(C)[C@@H]1[C@H](O)C[C@@H]1[C@@]3(C)CC[C@H](O)C(C)(C)[C@@H]3[C@@H](O)C[C@]12C [Protopanaxatriol] | – | Non-competitive type | – | 0.09 ± 0.01 ^a mg/g | – | – | – | Competitive type | 94.8 ± 3.46 | 27.9 ± 1.19 | 1.43 ± 0.14 | 2.61 | Ki ([1]; Dixon plots, single inhibition constant, read-out: RLAR Ki): 28.9 µM; RLAR Mode of Inhibition ([1]; listed as protopanaxatriol): non-competitive; HRAR Mode of Inhibition ([5]; listed as protopanaxatriol): competitive
CC(C)=CCC[C@](C)(O)C1CC[C@]2(C)[C@@H]1[C@H](O)CC1[C@@]3(C)CC[C@H](O[C@@H]4O[C@H](CO)[C@@H](O)[C@H](O)[C@H]4O[C@@H]4O[C@H](CO)[C@@H](O)[C@H](O)[C@H]4O)C(C)(C)C3CC[C@]12C (stereo partly drawn) [(20S) ginsenoside Rg3] | 1.97 | Competitive type | 1.25 ± 0.28 | 0.37 ± 0.01 ^b mg/g | 9.92 ± 0.56 | 8.06 | – | Competitive type | 78.5 ± 4.27 | – | – | – | RLAR Mode of Inhibition ([1]; listed as (20S) Rg3): competitive
CC(C)=CCC[C@](C)(O)C1CC[C@]2(C)[C@@H]1[C@H](O)CC1[C@@]3(C)CC[C@H](O)C(C)(C)C3CC[C@]12C (stereo partly shown) [Protopanaxadiol] | – | Mixed type | – | 0.06 ± 0.01 ^a mg/g | – | – | – | Competitive type | 96.5 ± 2.91 | 21.4 ± 2.45 | 0.36 ± 0.1 | 0.72 | RLAR Kiu (binding constant of inhibitor with enzyme-substrate complex) ([1]; Dixon plots): 37.39 µM; Ki [1, 9]: 18.8 µM; HRAR Mode of Inhibition ([5]; listed as protopanaxadiol): competitive
CC(C)=CCCC(C)(O)C1CCC2(C)C1C(O)CC1C3(C)CCC(O)C(C)(C)C3C(OC3OC(CO)C(O)C(O)C3OC3OC(C)C(O)C(O)C3O)CC12C [(20S) ginsenoside Rg2] | – | Mixed type | – | 0.73 ± 0.01 ^c mg/g | – | – | – | – | 57.5 ± 5.11 | 14.4 ± 0.99 | 15.7 ± 1.05 | – | RLAR Kiu (binding constant of inhibitor with enzyme-substrate complex) ([1]; Dixon plots): 17.04 µM; Ki [1, 9]: 10.8 µM
